Measured values taken from patent US20030036531A1, “Use of lysophospholipids to inhibit mammalian phospholipase D” (Wisconsin Alumni Research Foundation, priority 2001, published 2003).

Key:
[1] = target: T1, partially purified PLD from rat brain membrane (Rattus norvegicus, UniProt P70496); experiment: Measurement of PLD activity (partially purified rat brain PLD, 14C-PC substrate, TLC); type: biochemical; settings: for Km for PLD in the presence of inhibitor: Km without inhibitor 33.3 μM PC; for Vmax in the presence of inhibitor: Vmax without inhibitor 166.7 pmol/h, Lineweaver-Burk; for PLD activity, % of the control: 10 μM compound, standard mixture with 4.8 μM PIP2, 100 nM Arf, 5 μM GTPγS; for IC50: FIG. 2, read-out: Half-maximal inhibition of PLD activity
T1 construct: The activity of partially purified PLD from rat brain membrane was assayed; tissue Dr. Sue Goo Rhee (National Institutes of Health, Bethesda, Md.); host or cells: rat brain membranes
T1 sequence (P70496 1-1074): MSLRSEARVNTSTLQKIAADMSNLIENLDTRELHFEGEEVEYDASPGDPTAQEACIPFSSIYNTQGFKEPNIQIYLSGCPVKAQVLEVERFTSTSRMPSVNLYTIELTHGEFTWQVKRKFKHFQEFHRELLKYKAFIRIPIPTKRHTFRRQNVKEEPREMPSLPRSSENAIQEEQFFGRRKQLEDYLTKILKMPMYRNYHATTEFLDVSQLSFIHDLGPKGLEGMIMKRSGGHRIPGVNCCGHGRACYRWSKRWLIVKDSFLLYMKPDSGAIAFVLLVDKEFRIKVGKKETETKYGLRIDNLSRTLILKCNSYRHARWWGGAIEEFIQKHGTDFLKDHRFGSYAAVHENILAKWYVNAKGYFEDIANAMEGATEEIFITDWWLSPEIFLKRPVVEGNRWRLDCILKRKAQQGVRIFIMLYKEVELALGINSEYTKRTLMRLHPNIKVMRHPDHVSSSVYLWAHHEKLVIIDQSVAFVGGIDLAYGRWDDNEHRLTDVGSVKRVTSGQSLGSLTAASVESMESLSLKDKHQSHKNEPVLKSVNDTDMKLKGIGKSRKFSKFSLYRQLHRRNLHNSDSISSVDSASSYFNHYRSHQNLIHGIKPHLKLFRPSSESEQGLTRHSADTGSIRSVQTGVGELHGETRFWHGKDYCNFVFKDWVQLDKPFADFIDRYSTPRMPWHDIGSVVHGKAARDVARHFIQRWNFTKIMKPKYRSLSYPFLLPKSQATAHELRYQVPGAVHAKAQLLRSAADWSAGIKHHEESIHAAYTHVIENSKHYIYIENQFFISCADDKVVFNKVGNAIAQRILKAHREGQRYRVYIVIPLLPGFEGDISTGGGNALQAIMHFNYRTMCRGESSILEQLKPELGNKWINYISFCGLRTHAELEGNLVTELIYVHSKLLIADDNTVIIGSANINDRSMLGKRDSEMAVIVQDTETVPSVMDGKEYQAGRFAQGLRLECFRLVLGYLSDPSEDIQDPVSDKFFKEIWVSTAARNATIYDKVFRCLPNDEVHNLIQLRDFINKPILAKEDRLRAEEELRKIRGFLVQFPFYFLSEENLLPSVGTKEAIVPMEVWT

[2] = tested on: PLD activity in PC-3 cells; settings: cited from earlier work
[3] = tested on: human prostate cancer cell line PC-3; experiment: PC-3 cell growth (cell viability after trypan blue staining); type: cell-based
Description: The influence of lysophospholipids on the inhibition of cancer cell growth was investigated. For this purpose, human prostate cancer cell line PC-3 was used. PC-3 cells were cultured using standard RPMI 1640 medium supplemented with 5% fetal bovine serum (FBS). The composition of RPMI 1640 included inorganic salts, glucose, amino acids and vitamins (see Rajesh, D., et al., Molecular Pharmacology 56:515-525 (1999) for details). PC-3 cells were cultured in the presence of various presence of various phospholipids. At appropriate times after treatment the cells were treated by trypsin EDTA treatment, washed twice in an ice cold buffer and analyzed for cell viability after staining with trypan blue (Sawicki, W., et al., Stain Technology 42:143 (1967)).

rat brain PLD = target: T2, rat brain PLD (Rattus norvegicus, UniProt P70496); experiment: Binding of lysophospholipids to PLD (vesicle precipitation assay followed by immunoblot); settings: 1 mM vesicles, 1,500 fold excess BSA
T2 construct: 200 ng of rat brain PLD; tissue Dr. Sue Goo Rhee (National Institutes of Health, Bethesda, Md.); host or cells: rat brain membranes
T2 sequence (P70496 1-1074): T1 sequence (P70496 1-1074)
Description: The binding ability of lysophospholipids to PLD was estimated by precipitation assay followed by immunoblot. The final assay volume was 0.3 ml containing 50 mM Hepes (pH 7.5), 3 mM EGTA, 80 mM KCl, 2.5 MM MgCl2, 2 mM CaCl2, 1% ethanol, 5 μM GTPγS, 33 nM myristoylated Arf, 300 μg of BSA, 200 ng of rat brain PLD and 1 mM lysophospholipid or phospholipid vesicles. After incubation at 37° C. for 10 minutes, the mixture was cooled in ice-water for 30 minutes and centrifuged at 17,000×g for 30 minutes at 4° C. The precipitant of lysophospholipid vesicles containing bound PLD in the excess of BSA (1,500 fold than rat PLD) was resuspended in 20 μL PBS (pH 7.5). The bound PLD was separated by 8% SDS-PAGE without reducing agent (2-mercaptoethanol) in sample loading buffer and transferred onto immunoblot membrane. The membrane was blotted with rabbit-PLD antibodies that detect both PLD 1 and PLD 2 isozymes. The PLD-antibody complex was visualized by staining alkaline phosphatase conjugated to a second antibody (Bio-Rad, Hercules, Calif.).

PLD from plant tissues = settings: cited from earlier work

In the case of `N[C@@H](CO)C(=O)O` [serine, reference compound], the “inhibition of PLD activity by headgroups” value ([1]; 10 μM) is reported as “None of the headgroups such as choline, glycerol, inositol, or serine significantly inhibited PLD activity”.
For “lysophosphatidic acid [reference compound]”, the “effect on PLD activity in PC-3 cells” value [2] is given as “stimulate PLD activity” and the “stimulation of rat brain PLD” value ([1]; 10 and 20 μM, assay contains Arf and PIP2) is given as “not stimulated”.
For lysophosphatidylinositol [LPI], the “inhibition of PC-3 cell growth, lyso form vs phospholipid and inositol (FIG. 7)” value [3] was “able to inhibit the PC-3 cell growth”, the “retardation of PC-3 cell growth (FIG. 8)” value [3] was “able to retard the growth of PC-3 cells” and the “inhibition of PC-3 cell growth, concentration dependence (FIG. 9)” value ([3]; 100 μM) was “very inhibitory”. For the same compound, the “co-precipitation of PLD proteins with lipid vesicles” value (rat brain PLD) was “co-precipitated”, the “inhibition of PLD activity” value ([1]; 160 nM) was 19% and the “inhibition of PLD activity” value ([1]; 640 nM) was 27%. For the same compound, the “PLD activity, % of the control, in the absence of Arf” value ([1]; 4 μM inhibitor, no Arf (no Arf alone: 72%)) was 33%, the “Km for PLD in the presence of inhibitor” value ([1]; 4 μM inhibitor) was “did not change” and the “Vmax in the presence of inhibitor” value ([1]; 4 μM inhibitor) was 76.9 pmol/h. The “PLD activity, % of the control” value [1] was 23.3%, the “change of PLD activity by addition of myristoylated Arf in presence of inhibitor” value ([1]; 15 μM inhibitor) was “not significantly changed” and the IC50 [1] was 3 µM. The “PLD inhibition when PIP2 concentration tripled” value ([1]; LPI 4 μM, LPS 12 μM, PIP2 4.8 vs 14.4 μM) was “not significantly changed”.
For `O[C@H]1[C@H](O)[C@@H](O)[C@H](O)[C@@H](O)[C@H]1O` [inositol, reference compound], the “inhibition of PLD activity by headgroups” value ([1]; 10 μM) was “None of the headgroups such as choline, glycerol, inositol, or serine significantly inhibited PLD activity”.
In the case of eLPE [reference compound], the “effect on rat brain PLD activity” value ([1]; 10 μM (FIG. 1)) is reported as “not inhibited but rather slightly stimulated”.
For “lysophosphatidylcholine [LPC, reference compound]”, the “retardation of PC-3 cell growth (FIG. 8)” value [3] is listed as “able to retard the growth of PC-3 cells”, the “inhibition of activity of PLD from plant tissues” value (“inhibition of activity of PLD” below) (PLD from plant tissues) is listed as “not significantly inhibited” and the “PLD activity, % of the control” value [1] is listed as 61.0%.
For `CCCCCCCC/C=C\CCCCCCCC(=O)O` [oleate, reference compound], the inhibition at 20 µM ([1]; 20 μM) was 10% and the inhibition at 40 µM ([1]; 40 μM) was 20%.
For lysophosphatidylglycerol [LPG], the “retardation of PC-3 cell growth (FIG. 8)” value [3] is given as “able to retard the growth of PC-3 cells”, the “inhibition of activity of PLD” value (PLD from plant tissues) is given as “not significantly inhibited” and the “PLD activity, % of the control” value [1] is given as 24.9%.
For lysophosphatidylserine [LPS], the “inhibition of activity of PLD” value (PLD from plant tissues) is given as “not significantly inhibited”, the “Km for PLD in the presence of inhibitor” value ([1]; 4 μM inhibitor) is given as “did not change” and the “Vmax in the presence of inhibitor” value ([1]; 4 μM inhibitor) is given as 121.5 pmol/h. The “PLD activity, % of the control” value [1] was 30.3% and the IC50 [1] was 6 µM.
In the case of `C=C(C)[C@@H]1CC=C(CO)CC1` [perillyl alcohol, reference compound], the “inhibition of PC-3 cell growth compared to LPI (FIG. 10)” value ([3]; 1 mM) is reported as “not as strong inhibitor of PC-3 cell growth as compared to LPI”.
With Triton X-100 [reference compound] the “stimulatory effect on PLD activity” value ([1]; 10 μM) was 6-9%.
